Positions count from the first letter of the chain named.
How the values were obtained:
mPGES-1 = biological target: T1, mPGES-1 (Homo sapiens, UniProt O14684); settings: background statement; not selective for mPGES-1; cited from earlier work
T1 sequence (O14684 1-152): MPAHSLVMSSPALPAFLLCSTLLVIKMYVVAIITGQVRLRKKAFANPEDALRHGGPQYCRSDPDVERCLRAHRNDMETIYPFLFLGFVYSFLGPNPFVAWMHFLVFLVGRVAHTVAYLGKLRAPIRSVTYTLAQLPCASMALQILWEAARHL

wild-type mPGES-1 = biological target: T2, wild-type mPGES-1 (Homo sapiens, UniProt O14684); experiment: Activity assay, saturation kinetics for PGH2, wild-type mPGES-1; format: biochemical; design: The specific oligonucleotide primers to full length of mPGES-1 were synthesized; made in house; host or cells: E. coli M15 (membrane fraction); settings: 2.5 mM GSH, 1-500 μM PGH2, on ice, read-out: Experimental KM, this work
T2 sequence (O14684 1-152): T1 sequence (O14684 1-152)
Method: (§1) Expression and Preparation for the Membrane Fraction of mPGES-1 and its Mutants in E. coli: The wild-type mPGES-1 and its mutant plasmids from XLI-Blue were transformed into M15 E. coli cells. Cells were grown in 500 ml TB media containing 100 μg/ml ampicillin and 25 μg/ml kanamycin at 37° C. with shaking at 270 rpm until OD reached 0.8. IPTG was added to a final concentration of 2 mM and cells were allowed to grow for additional 3 hours at 37° C. Cells were then harvested by centrifugation at 5000 g for 15 min at 4° C. […] The cells were broken by sonication, and then the cell lysate was cleared by centrifugation at 12,500 g for 10 min. […] Total protein concentration of the membrane fraction was determined by coomassie protein assay according to the manufacture's instruction (Bio-Rad) with BSA as a standard.
(§2) The reaction contents were 1:2500 diluted, from which 50 μl aliquot was used for quantification of […] concentration by EIA assay. […] The KM values of wild-type mPGES-1 and its mutants were calculated by using the GraphPad Prism 4.01 program.

mPGES-1 Q134E mutant = biological target: T3, mPGES-1 Q134E mutant (Homo sapiens, UniProt O14684, Q134E); experiment: Activity assay, saturation kinetics for PGH2, Q134E mutant; format: biochemical; settings: 2.5 mM GSH, 1-500 μM PGH2, errors expected to be very large, read-out: Experimental KM, this work
T3 sequence (O14684 1-152 Q134E): T1 sequence (O14684 1-152) with Q134E
Method: as §1, §2

mPGES-1 Q36E mutant = biological target: T4, mPGES-1 Q36E mutant (Homo sapiens, UniProt O14684, Q36E); experiment: Activity assay, saturation kinetics for PGH2, Q36E mutant; format: biochemical; settings: 2.5 mM GSH, 1-500 μM PGH2, errors expected to be very large, read-out: Experimental KM, this work
T4 sequence (O14684 1-152 Q36E): T1 sequence (O14684 1-152) with Q36E
Method: as §1, §2

Compound | Ability to inhibit mPGES-1 (mPGES-1) | Km (wild-type mPGES-1) [µM] | Km (mPGES-1 Q134E mutant) [µM] | Km (mPGES-1 Q36E mutant) [µM]
CS(=O)(=O)Nc1ccc([N+](=O)[O-])cc1OC1CCCCC1 [NS-398] | able to inhibit mPGES-1 |  |  | 
CCCCC[C@H](O)/C=C/[C@@H]1[C@@H](C/C=C\CCCC(=O)O)[C@@H]2C[C@H]1OO2 [PGH2, prostaglandin H2] |  | 130 | ~734 | ~1610
